pIC50: −log10 of the molar value.
How the values were obtained:
[1] = target: T1, Cyclooxygenase (Rattus norvegicus) (UniProt P35355+Q63921); assay: The compound was tested for the inhibition of Prostaglandin G/H synthase in intact basophilic rat leukemia cells at 16 uM
[2] = target: T2, Polyunsaturated fatty acid 5-lipoxygenase (Rattus norvegicus) (UniProt P12527); assay: The compound was tested for the inhibition of 5-lipoxygenase in intact basophilic rat leukemia cells at 1.0 uM; format: cell-based; settings: RBL-1
T2 sequence (whole entry): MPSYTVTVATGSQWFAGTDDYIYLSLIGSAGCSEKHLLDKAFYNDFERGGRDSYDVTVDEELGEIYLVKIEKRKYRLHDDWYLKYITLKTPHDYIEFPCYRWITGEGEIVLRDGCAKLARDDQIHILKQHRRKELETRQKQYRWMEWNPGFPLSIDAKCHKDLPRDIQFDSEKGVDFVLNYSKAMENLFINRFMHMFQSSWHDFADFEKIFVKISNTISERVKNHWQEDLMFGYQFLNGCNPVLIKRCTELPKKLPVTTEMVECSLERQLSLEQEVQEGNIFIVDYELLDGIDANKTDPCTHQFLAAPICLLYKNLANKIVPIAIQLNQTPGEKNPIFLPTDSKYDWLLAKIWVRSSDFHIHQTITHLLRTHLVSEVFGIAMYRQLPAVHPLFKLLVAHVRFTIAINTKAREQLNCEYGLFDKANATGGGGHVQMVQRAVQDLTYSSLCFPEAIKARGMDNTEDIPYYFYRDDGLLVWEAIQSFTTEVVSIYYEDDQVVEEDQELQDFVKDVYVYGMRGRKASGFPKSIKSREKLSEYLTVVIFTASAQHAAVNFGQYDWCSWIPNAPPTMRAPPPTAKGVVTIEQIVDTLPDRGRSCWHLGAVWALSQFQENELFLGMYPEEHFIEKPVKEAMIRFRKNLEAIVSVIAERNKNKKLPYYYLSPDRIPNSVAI

[3] = target: T3, Cyclooxygenase (Rattus norvegicus, UniProt P35355+Q63921); assay: The compound was tested for the inhibition of Prostaglandin G/H synthase in intact basophilic rat leukemia cells
T3 sequence (P35355 whole entry): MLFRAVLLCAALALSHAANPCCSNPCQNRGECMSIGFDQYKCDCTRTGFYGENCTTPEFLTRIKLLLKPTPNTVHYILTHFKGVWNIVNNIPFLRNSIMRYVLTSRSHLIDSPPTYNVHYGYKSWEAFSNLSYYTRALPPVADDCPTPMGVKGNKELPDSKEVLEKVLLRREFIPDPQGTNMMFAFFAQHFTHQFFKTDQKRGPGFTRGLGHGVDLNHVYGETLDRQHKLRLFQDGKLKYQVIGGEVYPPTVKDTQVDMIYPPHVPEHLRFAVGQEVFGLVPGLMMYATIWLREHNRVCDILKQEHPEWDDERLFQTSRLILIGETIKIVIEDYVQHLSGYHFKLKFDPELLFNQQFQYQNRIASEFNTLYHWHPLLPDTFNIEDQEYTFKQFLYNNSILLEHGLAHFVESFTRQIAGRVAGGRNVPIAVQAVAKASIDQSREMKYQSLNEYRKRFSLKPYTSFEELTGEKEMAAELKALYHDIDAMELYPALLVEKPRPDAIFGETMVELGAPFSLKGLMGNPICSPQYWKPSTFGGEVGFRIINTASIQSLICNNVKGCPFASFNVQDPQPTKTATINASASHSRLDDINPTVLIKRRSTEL
T3 sequence (Q63921 whole entry): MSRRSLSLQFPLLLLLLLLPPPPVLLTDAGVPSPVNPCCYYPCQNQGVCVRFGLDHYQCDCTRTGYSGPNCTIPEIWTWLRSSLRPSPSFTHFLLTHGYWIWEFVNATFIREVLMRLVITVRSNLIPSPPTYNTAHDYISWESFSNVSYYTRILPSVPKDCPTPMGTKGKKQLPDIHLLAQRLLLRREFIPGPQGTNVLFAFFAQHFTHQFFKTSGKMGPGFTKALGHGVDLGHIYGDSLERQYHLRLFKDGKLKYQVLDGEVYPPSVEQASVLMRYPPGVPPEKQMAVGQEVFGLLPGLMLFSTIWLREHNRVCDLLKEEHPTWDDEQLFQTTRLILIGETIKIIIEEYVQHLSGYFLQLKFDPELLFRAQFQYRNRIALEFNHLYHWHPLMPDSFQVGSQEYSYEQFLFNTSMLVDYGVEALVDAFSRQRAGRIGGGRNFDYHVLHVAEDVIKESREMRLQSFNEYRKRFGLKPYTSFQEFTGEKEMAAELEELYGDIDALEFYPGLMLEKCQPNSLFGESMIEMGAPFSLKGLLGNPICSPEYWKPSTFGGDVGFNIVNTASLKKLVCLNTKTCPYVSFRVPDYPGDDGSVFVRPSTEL

[4] = target: T4, Polyunsaturated fatty acid 5-lipoxygenase (Rattus norvegicus, UniProt P12527); assay: The compound was tested for the inhibition of 5-lipoxygenase in intact basophilic rat leukemia cells; format: cell-based, RBL-1
T4 sequence (P12527 whole entry): T2 sequence (whole entry)

[5] = target: T1, Cyclooxygenase (Rattus norvegicus); assay: The compound was tested for the inhibition of Prostaglandin G/H synthase in intact basophilic rat leukemia cells at 10 uM
[6] = target: T2, Polyunsaturated fatty acid 5-lipoxygenase (Rattus norvegicus); assay: The compound was tested for the inhibition of 5-lipoxygenase in intact basophilic rat leukemia cells at 10 uM; format: cell-based; settings: RBL-1

| Structure (SMILES) | inhibition [1] [%] | IC50 [3] [µM] | pIC50 [4] | other results |
| --- | --- | --- | --- | --- |
| CC(C)(C)c1cc(Sc2nnc(O)s2)cc(C(C)(C)C)c1O | < 40 |  |  | inhibition [2]: 75% |
| CC(C)(C)c1cc(Sc2nnc(NC#N)s2)cc(C(C)(C)C)c1O |  | 6 | 5.51 |  |
| CC(C)(C)c1cc(Sc2nnc(N)s2)cc(C(C)(C)C)c1O |  |  |  | inhibition [5]: < 40%; inhibition [6]: < 40% |
| CC(C)(C)c1cc(Sc2nnc(O)o2)cc(C(C)(C)C)c1O | < 40 |  | 5.96 |  |
| CC(C)(C)c1cc(Sc2nnc(S)s2)cc(C(C)(C)C)c1O |  | 3.6 |  |  |
| CC(C)(C)c1cc(Sc2nnc(S)o2)cc(C(C)(C)C)c1O |  | 1.5 |  |  |

Reference: ChEMBL document CHEMBL1127170, “Cyclooxygenase and 5-lipoxygenase inhibitory activity of 2,6 di-t-butylphenols linked by a sulfur atom to 1,3,4-thiadiazoles and 1,3,4-oxadiazoles” (Bioorg Med Chem Lett, 1993)
